Common to all, as to format: biochemical
Test [1] has as its target T1, 20S mouse liver proteasome (Mus musculus, UniProt O55234+P70195+Q60692).
T1 construct: gene Psmb5; native 20S core particle purified from mouse liver; alpha7beta7beta7alpha7; with Proteasome subunit beta type-1; Proteasome subunit beta type-2; Proteasome subunit beta type-3; Proteasome subunit beta type-4; Proteasome subunit alpha type-1; Proteasome subunit alpha type-2; Proteasome subunit alpha type-3; Proteasome subunit alpha type-4; Proteasome subunit alpha type-5; Proteasome subunit alpha type-6; Proteasome subunit alpha type-7
The test can be described thus: Bz-VGR-MCA hydrolysis with and without peptide. Conditions: activator; allosteric non-catalytic modifier site; terminal groups of LLVY not told; pH 7.2, 37 °C.

Test [2] concerns the target T1, 20S mouse liver proteasome. The experiment in a line: fluorogenic peptide hydrolysis, initial velocities, ABC-SMC fit of Michaelis-Menten and substrate-inhibition models. The following applies: TEAD buffer pH 7.2, 37 °C, authors state the models fit poorly.
Test [3] deals with T2, human 20S s-proteasome (T2 proteasome) (Homo sapiens, UniProt P28072+P28074+Q99436).
T2 construct: gene PSMB5; native 20S core particle purified from T2 cells; alpha7beta7beta7alpha7; with Proteasome subunit beta type-1; Proteasome subunit beta type-2; Proteasome subunit beta type-3; Proteasome subunit beta type-4; Proteasome subunit alpha type-1; Proteasome subunit alpha type-2; Proteasome subunit alpha type-3; Proteasome subunit alpha type-4; Proteasome subunit alpha type-5; Proteasome subunit alpha type-6; Proteasome subunit alpha type-7
The test can be described thus: fluorogenic peptide hydrolysis time courses, Bayesian fit of compartment model. Conditions: TEAD buffer pH 7.2, 37 °C, 20-640 μM substrate, model-inferred active site affinity.

The structures appear in SMILES notation. Residues, ends and D or L forms follow the SMILES beside them.

On to `Cc1cc(=O)oc2cc(NC(=O)[C@H](Cc3ccc(O)cc3)NC(=O)[C@@H](NC(=O)[C@H](CC(C)C)NC(=O)[C@H](CC(C)C)NC(=O)CCC(=O)O)C(C)C)ccc12` [LLVY peptide] (HELM PEPTIDE1{[O=C(O)CCC(=O)[*:2]].L.L.V.Y.[Cc1cc(=O)oc2cc(N[*:1])ccc12]}$$$$V2.0), for which the “Bz-VGR-MCA hydrolysis with and without peptide” value in test [1] is listed as “degradation rate of the substrate Bz-VGR-MCA increases in the presence of the peptide LLVY”. Turning to `Cc1cc(=O)oc2cc(NC(=O)[C@H](Cc3ccc(O)cc3)NC(=O)[C@@H](NC(=O)[C@H](CC(C)C)NC(=O)[C@H](CC(C)C)NC(=O)CCC(=O)O)C(C)C)ccc12` [Suc-LLVY-MCA] (HELM PEPTIDE1{[O=C(O)CCC(=O)[*:2]].L.L.V.Y.[Cc1cc(=O)oc2cc(N[*:1])ccc12]}$$$$V2.0), in test [2] (site mainly beta5/beta5i), the KM entry is “Scatterplot of the kinetic parameters vmax and KM from the inferred posterior parameter distributions”. For the same molecule, in test [3] (site mainly beta5), the KaS result is reported as “we observe a higher active site affinity (KaS) with a lower Hill coefficient (na)”. Consider `Cc1cc(=O)oc2cc(NC(=O)[C@H](CCC(=O)O)NC(=O)[C@H](CC(C)C)NC(=O)[C@H](CC(C)C)NC(=O)OCc3ccccc3)ccc12` [Z-LLE-MCA] (HELM PEPTIDE1{[O=C(OCc1ccccc1)[*:2]].L.L.E.[Cc1cc(=O)oc2cc(N[*:1])ccc12]}$$$$V2.0), for which the KM result in test [2] (site mainly beta1/beta1i) was “The substrates Suc-LLVY-MCA, Bz-VGR-MCA and Z-LLE-MCA were hydrolysed by mouse proteasome”. The KaS entry in test [3] (site mainly beta1) is listed as “for i-proteasomes we observe lower affinity to the active site (KaS)”.

The values above are taken from PMC4611054, “Quantitative time-resolved analysis reveals intricate, differential regulation of standard- and immuno-proteasomes” (eLife, 2015).
